≈ marks a conversion by molar mass, not a printed value. Like-named read-outs stand apart in the source and are kept apart here.
Legend:
[1] = HT-logP o/w, high throughput assay based on artificial liquid membrane permeability; type: physicochemical; conditions: octanol/water; for logP: read-out: HT LogP ohw
In short: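 Octanol/water partition coefficients measured in a high-throughput format based on permeability across an artificial liquid membrane.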

[2] = high throughput solubility (HT-Solubility); type: physicochemical; conditions: for water solubility (in words): see FIG. 10
[3] = test system: human SRIF receptors; experiment: radioligand-binding displacement assay on the human SRIF receptor family (selectivity)
Procedure: (§1) The generated peptides are tested for their affinity to bind to human SRIF receptors expressed in Chinese hamster lung fibroblast (CCL39) cells. This is achieved in radioligand-binding assays, a displacement experiment in which the concentration of a substance is measured which is necessary for the replacement of 50% of a specifically bound radioligand ([^125I]LTT-SRIF28). Specific binding is measured as the total binding of receptor-specific radioligand minus the amount of radioligand bound in presence of unmarked SRIF-14 (100 nM, nonspecific binding).

[4] = logP octanol by pH-metric titration (GLpKa instrument); type: physicochemical; conditions: read-out: log P/D logP octanol
Procedure: In order to have a real measure of log P values for highly polar compounds, respective values for compounds 1 to 3 (C-terminal L-β-homothreonine amides) and compounds 7 to 9 (C-terminal 4-amino-5-methyl-dihydro-fuan-2-ones) are measured by employing pH-metric titration technology using a GLpKa instrument (Box et al. 2003). The high polarity of these two mixed α/β^3-tetrapeptides can be controlled by N-terminal introduction of lipophilization tags. The conjugation with fatty acid analogs leads to compounds with druglike polarity (5, 6, 10, 11, 12, 13, 14, 15, 16, 17, 18 and 26).

[5] = high throughput permeability (HT-Permeability, log Pe); type: physicochemical; conditions: PAMPA, Pe in cm/s
[6] = target: T1, hsst4 receptor (Homo sapiens, UniProt P31391); experiment: radioligand-binding displacement assay ([125I]LTT-SRIF28), receptor expressed in CCL39 cells; conditions: hsst4; [125I]LTT-SRIF28 displacement
T1 construct: expressed in transfected cells; host or cells: Chinese hamster lung fibroblast (CCL39) cells
T1 sequence (P31391 whole entry): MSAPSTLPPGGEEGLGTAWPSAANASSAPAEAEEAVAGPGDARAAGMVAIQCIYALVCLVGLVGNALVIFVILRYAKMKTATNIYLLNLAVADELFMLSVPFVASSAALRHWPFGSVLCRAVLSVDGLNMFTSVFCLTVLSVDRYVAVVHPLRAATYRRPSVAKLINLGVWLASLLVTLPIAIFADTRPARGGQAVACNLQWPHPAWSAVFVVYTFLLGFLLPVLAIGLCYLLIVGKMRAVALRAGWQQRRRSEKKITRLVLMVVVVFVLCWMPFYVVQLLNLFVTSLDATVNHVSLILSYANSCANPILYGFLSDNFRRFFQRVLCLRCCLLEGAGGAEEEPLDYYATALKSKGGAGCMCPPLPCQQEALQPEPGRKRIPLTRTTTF
Procedure: as §1

[7] = pH 6.8, pH 6.8, read-out: HT-Permeability logPe pH 6.8 (converted)
[8] = pH 8, pH 8.0, read-out: HT-Permeability logPe pH 8.0 (converted)

logP [1] | water solubility (in words) [2] | logP [4] | Papp [5, 7] [×10⁻⁶ cm/s] | Papp [5, 8] [×10⁻⁶ cm/s] | Compound | other results
 |  | 1 | 3.98 | 3.16 | NCCCC[C@@H](CC(N)=O)NC(=O)[C@@H](Cc1c[nH]c2ccccc12)NC(=O)C[C@@H](N)Cc1ccccc1 [Compound 59, (S)-β^3-HPhe-(R)-Trp-(S)-β^3-HLys-NH2] | solubility ([2]; pH 1, pH 1.0, read-out: HT-Solubility pH 1.0): 101 µg/mL (≈ 200 µM); solubility ([2]; pH 6.8, pH 6.8, read-out: HT-Solubility pH 6.8): 50.7 µg/mL (≈ 100 µM); Papp ([5]; pH 4, pH 4.0, read-out: HT-Permeability logPe pH 4.0 (converted)): 1 ×10⁻⁶ cm/s; Kd [6]: 1510 nM; affinity to the receptors of the SRIF family (in words) [3]: only very low affinity
 | highest solubility values | 2.8 |  |  | CCCCCN(C)C(=O)C[C@H](CCCCN)NC(=O)[C@@H](Cc1c[nH]c2ccccc12)NC(=O)C[C@H](Cc1ccccc1)NC(=O)CC [Compound 49, Propionyl-(S)-β^3-HPhe-(R)-Trp-(S)-β^3-HLys-methyl-pentyl-amide] | HT LogP ohw [1]: 3.7; HT-Solubility pH 1.0 ([2]; pH 1.0): 0.1294 g 1-1; HT-Solubility pH 6.8 ([2]; pH 6.8): 0.1294 g 1-1
3.4 |  | 0.4 |  | 2 | CC(=O)N[C@H](CC(=O)N[C@H](Cc1c[nH]c2ccccc12)C(=O)N[C@@H](CCCCN)CC(=O)N[C@@H]1CC(=O)O[C@@H]1C)Cc1ccccc1 [Compound 8] | 
 | highest solubility values | 3.1 | 6.31 | 2 | CCCCCN(C)C(=O)C[C@H](CCCCN)NC(=O)[C@@H](Cc1c[nH]c2ccccc12)N(C)C(=O)C[C@H](Cc1ccccc1)NC(=O)CC [Compound 64] | 

Compound | logP [1] | water solubility (in words) [2] | logP [4] | Papp [5, 7] [×10⁻⁶ cm/s] | Papp [5, 8] [×10⁻⁶ cm/s] | other results
CCCCCN(C)C(=O)C[C@H](CCCCN)NC(=O)[C@@H](Cc1c[nH]c2ccccc12)N(Cc1ccccc1)C(=O)C[C@H](Cc1ccccc1)NC(=O)CC [Compound 67] | 4.4 | does not allow for good water solubilities |  |  |  | selectivity amongst other hsst receptors (factor) ([3]; hsst4 versus other hsst receptors): 100
